Measurements: article PMC9061857, “A fluorogenic probe for granzyme B enables in-biopsy evaluation and screening of response to anticancer immunotherapies” (Nature Communications, 2022)
*1 amine or outer side, *2 acyl side, *3 side chain or, on linkers, in order; H or OH if unused. Primed or numbered codes have the meaning given here. The star is where a group is joined. BODIPY(FL) = CC1=CC(C)=[N+]2C1=Cc1ccc(CCC(=O)*)n1[B-]2(F)F; Ethylenediamine = C(CN[*:2])N[*:1]; AMC = Cc1cc(=O)oc2cc(N*)ccc12; Dabcyl′ = quencher

Columns and labels:
[1] = system: GzmB; conditions: 4-mer, fluorogenic dye; ref [39]; cited from earlier work
From the text: Table 1 Summary of fluorescent peptide-based probes for GzmB. | column: Kcat (s^−1); KM (µM); Kcat/KM (M^−1 s^−1)

[2] = target: T1, human GzmB (hGzmB) (Homo sapiens, UniProt P10144); experiment: HPLC conversion of fluorogenic peptides by hGzmB; format: biochemical; conditions: TRIS buffer, 37 °C
T1 construct: For active GzmB vs pro-GzmB, p < 0.0001
T1 sequence (P10144 21-247): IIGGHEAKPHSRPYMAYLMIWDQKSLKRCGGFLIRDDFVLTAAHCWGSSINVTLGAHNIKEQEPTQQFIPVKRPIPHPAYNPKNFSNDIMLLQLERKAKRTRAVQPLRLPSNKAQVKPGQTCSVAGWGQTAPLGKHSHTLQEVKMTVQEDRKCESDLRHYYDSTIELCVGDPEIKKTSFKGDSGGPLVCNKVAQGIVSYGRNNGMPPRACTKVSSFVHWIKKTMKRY
Procedure: (§1) Supplementary Figure 1. Reactivity of fluorogenic substrates against human GzmB and limits of detection. a) Reaction conversion rates (by HPLC-UV detection at 350 nm) for Ac-IEPD-AMC (50 μM) in TRIS buffer (see Methods) at 37 °C containing different concentrations of hGzmB. Data presented as mean values±SEM (n=3 independent biological experiments). b) Reaction conversion rates (by HPLC-UV detection at 500 nm) for the tetrapeptide T1 (25 μM) in TRIS buffer at 37 °C containing different concentrations of hGzmB. Data presented as mean values±SEM (3 independent biological experiments).
(§2) Source data provided as a Source Data file.
(§3) (1 picture or pasted object on this page, not shown here)
Supplementary Table 1. Chemical structures and reactivity of FRET-based tetrapeptides against human GzmB.
Code Structure Linker Quencher HPLC conversion HPLC conversion […]
Supplementary Table 2. Sequences and reactivity of FRET-based hexapeptides against […]
Code Peptide sequence HPLC conversion
H1 Ile-Glu-Pro-Asp-Ala-Gly 75%
H2 Ile-Glu-Pro-Asp-Ser-Gly 80%
H3 Ile-Glu-Pro-Asp-Ser-Leu 80%
H4 Ile-Glu-Pro-Asp-Trp-Leu 82%
H6 Ile-Glu-Pro-Asp-Trp-Arg 40%
H7 Ile-Glu-Pro-Asp-Arg-Leu 60%
H5m Ile-Glu-Phe-Asp-Ala-Leu 70%

[3] = system: hGzmB; experiment: Limit of detection of hGzmB by probe fluorescence; format: biochemical, human; conditions: limit of detection of hGzmB (Fig. S1)
Procedure: as §1, §2, §3
Supplementary Figure 4. Comparative enzyme selectivity and limit of detection for […]
Ac-IEPD-AMC (all at 25 μM) after incubation for 90 min at 37 °C with hGzmB (light gray bars), human caspase-3 (dark gray bars) and hGzmA (white bars) (all enzymes used at 20 nM). Data presented as mean values±SEM (n=3). Excitation wavelengths: 450 nm (for […]
450 nm (for Ac-IEPD-AMC). b) Limit of detection of hGzmB by fluorescence emission […]
presented as mean values±SD (2 independent experiments with 3 technical replicates).

[4] = target: human granzyme B (human) (UniProt P10144)
human granzyme B (human), sequence (P10144 21-247): as above

[5] = target: human granzyme B (human) (UniProt P10144); remark: listed apart in the source
[6] = target: human granzyme B (human) (UniProt P10144); remark: listed apart in the source
[7] = target: human granzyme B (human) (UniProt P10144); remark: listed apart in the source
[8] = probe 25 μM (Ac-IEPD-AMC 50 μM), HPLC-UV

Question: Which results are given for Ac-IEPD-{AMC}?
Answer: Kcat/KM [1]: 3300 M⁻¹ s⁻¹; Km [1]: 160 µM; kcat [1]: 0.5 s⁻¹; HPLC conversion rate ([2]; 2h-20 nM hGzmB, Data 1): 0.5%; HPLC conversion rate ([2]; 2h-20 nM hGzmB, Data 2): 0.5%; HPLC conversion rate ([2]; 2h-20 nM hGzmB, Data 3): 0.5%; HPLC conversion rate ([2]; 2h-50 nM hGzmB, Data 1): 2.5%; HPLC conversion rate ([2]; 2h-50 nM hGzmB, Data 2): 2%; HPLC conversion rate ([2]; 2h-50 nM hGzmB, Data 3): 2.5%; HPLC conversion rate ([2]; 2h-100 nM hGzmB, Data 1): 7.5%; HPLC conversion rate ([2]; 2h-100 nM hGzmB, Data 2): 5%; HPLC conversion rate ([2]; 2h-100 nM hGzmB, Data 3): 6.5%; HPLC conversion rate ([2]; 6h-20 nM hGzmB, Data 1): 0.5%; HPLC conversion rate ([2]; 6h-20 nM hGzmB, Data 2): 0.5%; HPLC conversion rate ([2]; 6h-20 nM hGzmB, Data 3): 0.75%; HPLC conversion rate ([2]; 6h-50 nM hGzmB, Data 1): 3%; HPLC conversion rate ([2]; 6h-50 nM hGzmB, Data 2): 2%; HPLC conversion rate ([2]; 6h-50 nM hGzmB, Data 3): 2%; HPLC conversion rate ([2]; 6h-100 nM hGzmB, Data 1): 8.5%; HPLC conversion rate ([2]; 6h-100 nM hGzmB, Data 2): 7%; HPLC conversion rate ([2]; 6h-100 nM hGzmB, Data 3): 9%; HPLC conversion rate ([2]; 24h-20 nM hGzmB, Data 1): 1.5%; HPLC conversion rate ([2]; 24h-20 nM hGzmB, Data 2): 1%; HPLC conversion rate ([2]; 24h-20 nM hGzmB, Data 3): 1.5%; HPLC conversion rate ([2]; 24h-50 nM hGzmB, Data 1): 4%; HPLC conversion rate ([2]; 24h-50 nM hGzmB, Data 2): 2.5%; HPLC conversion rate ([2]; 24h-50 nM hGzmB, Data 3): 3.5%; HPLC conversion rate ([2]; 24h-100 nM hGzmB, Data 1): 13%; HPLC conversion rate ([2]; 24h-100 nM hGzmB, Data 2): 9%; HPLC conversion rate ([2]; 24h-100 nM hGzmB, Data 3): 12.5%; HPLC conversion (20 nM hGzmB, 2 h) [2, 8]: < 1%; HPLC conversion (100 nM hGzmB, 24 h) [2, 8]: 10%; LoD [3]: 25 nM

B1: Ac-IEPD-AMC (peptide)
peptide: Ac-IEPD-{AMC}
SMILES: CC[C@H](C)[C@H](NC(C)=O)C(=O)N[C@@H](CCC(=O)O)C(=O)N1CCC[C@H]1C(=O)N[C@@H](CC(=O)O)C(=O)Nc1ccc2c(C)cc(=O)oc2c1
Question: Which enzymatic cleavage of Ac-IEPD-AMC by hGzmB (20 nM for 2 h: <1%; 100 nM for 24 h: 10%) [4] does the source give for B1 here?
Answer: The enzymatic cleavage of Ac-IEPD-AMC by hGzmB (20 nM for 2 h: <1%; 100 nM for 24 h: 10%) was 10%.

Question: Which signal-to-background ratio of fluorescence emission (peptide 25 μM, hGzmB 20 nM) [5] does the source give for {BODIPY(FL)}-IEPDWR-{Dabcyl′} [hexapeptide H6] here?
Answer: The signal-to-background ratio of fluorescence emission (peptide 25 μM, hGzmB 20 nM) was 12 fold.

Question: And the conversion (cleavage) by hGzmB [6]?
Answer: The conversion (cleavage) by hGzmB was 40%.

Question: With {BODIPY(FL)}-IEPDAL-{Dabcyl′} [probe H5] as the molecule, how does the signal-to-background ratio of fluorescence emission (peptide 25 μM, hGzmB 20 nM) [5] read?
Answer: Its signal-to-background ratio of fluorescence emission (peptide 25 μM, hGzmB 20 nM) is 153 fold.

Question: And the t50: time to reach 50-fold fluorescence increase (peptide 25 μM, hGzmB 20 nM) [5]?
Answer: The t50: time to reach 50-fold fluorescence increase (peptide 25 μM, hGzmB 20 nM) was 7 min.

Question: And the KM of cleavage by hGzmB (20 nM), Michaelis-Menten fit [7]?
Answer: The KM of cleavage by hGzmB (20 nM), Michaelis-Menten fit was 9.6 µM.

Question: What about the Kcat of cleavage by hGzmB (20 nM), Michaelis-Menten fit [7] of the same molecule?
Answer: Its Kcat of cleavage by hGzmB (20 nM), Michaelis-Menten fit is 117 s⁻¹.

Question: What about the Kcat/KM of cleavage by hGzmB (20 nM), Michaelis-Menten fit [7] of the same molecule?
Answer: Its Kcat/KM of cleavage by hGzmB (20 nM), Michaelis-Menten fit is 1.2e+07 M⁻¹ s⁻¹.

Question: Which results are given for {BODIPY(FL)}-IEPD-{Ethylenediamine-Dabcyl′} [tetrapeptide T1]?
Answer: KM of cleavage by GzmB [7]: 30.8 µM; Kcat of cleavage by GzmB [7]: 2.3 s⁻¹; Kcat/KM of cleavage by GzmB [7]: 59000 M⁻¹ s⁻¹; enzymatic cleavage of T1 by hGzmB (20 nM for 2 h: <5%; 100 nM for 24 h: 14%) [4]: 14%
